Each structure is given as a SMILES string.

One data set relates to A549 cells. The experiment in a line: Cellular proliferation/cytotoxicity assay (Alamar Blue), A549 cells. As to conditions: Homo sapiens, A549, 72 h, read-out: Anti-proliferative/Cytotoxic activity (A549 cells). For orientation: Alamar Blue is a resazurin reagent that responds to reducing activity.
In the case of `Fc1ccc2nc(-c3ccc(CN4CCC(c5n[nH]c(-c6ccccn6)n5)CC4)cc3)c(-c3ccccc3)n2c1` [Example 22, 6-fluoro-3-phenyl-2-(4-{[4-(5-pyridin-2-yl-1,2,4-triazol-3-yl)piperidin-1-yl]methyl}phenyl)imidazo[1,2-a]pyridine], the IC50 was above 10 µM.

Regarding `N#Cc1ccn2c(-c3ccccc3)c(-c3ccc(CN4CCC(c5n[nH]c(-c6ccccn6)n5)CC4)cc3)nc2c1` [Example 29, 3-phenyl-2-(4-{[4-(5-pyridin-2-yl-1,2,4-triazol-3-yl)piperidin-1-yl]methyl}phenyl)imidazo[1,2-a]pyridine-7-carbonitrile], the IC50 was above 10 µM.

As for `c1ccc(-c2c(-c3ccc(CN4CCC(c5n[nH]c(-c6ccccn6)n5)CC4)cc3)nc3sccn23)cc1` [Example 10, 5-phenyl-6-(4-{[4-(5-pyridin-2-yl-1,2,4-triazol-3-yl)piperidin-1-yl]methyl}phenyl)imidazo[2,1-b][1,3]thiazole], the IC50 was below 10 µM.

Regarding `c1ccc(-c2nc(C3CCN(Cc4ccc(-c5nc6ncccn6c5-c5nccs5)cc4)CC3)n[nH]2)nc1` [Example 39, 2-(4-{[4-(5-pyridin-2-yl-1,2,4-triazol-3-yl)piperidin-1-yl]methyl}phenyl)-3-(1,3-thiazol-2-yl)imidazo[1,2-a]pyrimidine], the IC50 was above 10 µM.

For the compound `N#Cc1ccn2c(-c3ccccc3)c(-c3ccc(CN4CCC(c5nnc(-c6ncccn6)[nH]5)CC4)cc3)nc2c1` [Example 78, 3-phenyl-2-[4-({4-[5-(pyrimidin-2-yl)-4H-1,2,4-triazol-3-yl]piperidin-1-yl}methyl)phenyl]imidazo[1,2-a]pyridine-7-carbonitrile], the IC50 is below 10 µM.

As to `c1ccc(-c2nc(C3CCN(Cc4ccc(-c5nc6ncccn6c5-c5ccsc5)cc4)CC3)n[nH]2)nc1` [Example 34, 2-(4-{[4-(5-pyridin-2-yl-1,2,4-triazol-3-yl)piperidin-1-yl]methyl}phenyl)-3-(3-thienyl)imidazo[1,2-a]pyrimidine], the IC50 is above 10 µM.

The same data set, now with this note: read-out: Anti-proliferative/Cytotoxic activity (A549 cells); A549 cells, 72 h, Alamar Blue (Resazurin).
For the compound `Clc1ccn2c(-c3ccccc3)c(-c3ccc(CN4CCC(c5nnc(-c6ccc[nH]6)[nH]5)CC4)cc3)nc2c1` [Example 107, ′7-chloro-3-phenyl-2-[4-({4-[5-(1H-pyrrol-2-yl)-4H-1,2,4-triazol-3-yl]piperidin-1-yl}methyl)phenyl]imidazo[1,2-a]pyridine], the IC50 was below 10 µM.

Take `Cc1ccc(-c2nnc(C3CCN(Cc4ccc(-c5nc6scnn6c5-c5ccccc5)cc4)CC3)[nH]2)nc1` [Example 74, ′6-[4-({4-[5-(5-methylpyridin-2-yl)-4H-1,2,4-triazol-3-yl]piperidin-1-yl}methyl)phenyl]-5-phenylimidazo[2,1-b][1,3,4]thiadiazole]: the IC50 is below 10 µM.

As for `Cc1ccc2nc(-c3ccc(CN4CCC(c5nnc(-c6cccs6)[nH]5)CC4)cc3)c(-c3ccccc3)n2n1` [Example 99, ′6-methyl-3-phenyl-2-[4-({4-[5-(2-thienyl)-4H-1,2,4-triazol-3-yl]piperidin-1-yl}methyl)phenyl]imidazo[1,2-b]pyridazine], the IC50 is below 10 µM.

`c1ccc(-c2c(-c3ccc(CN4CCC(c5n[nH]c(-c6nccs6)n5)CC4)cc3)nc3ncccn23)cc1` [Example 84, ′3-phenyl-2-[4-({4-[5-(1,3-thiazol-2-yl)-1H-1,2,4-triazol-3-yl]piperidin-1-yl}methyl)phenyl]imidazo[1,2-a]pyrimidine]: the IC50 is above 10 µM.

As for `Cc1ccc(-c2nnc(C3CCN(Cc4ccc(-c5nc6cc(C#N)ccn6c5-c5ccccc5)cc4)CC3)[nH]2)nc1` [Example 72, ′2-[4-({4-[5-(5-methylpyridin-2-yl)-4H-1,2,4-triazol-3-yl]piperidin-1-yl}methyl)phenyl]-3-phenylimidazo[1,2-a]pyridine-7-carbonitrile], the IC50 is below 10 µM.

In the case of `c1ccc(-c2c(-c3ccc(CN4CCC(c5n[nH]c(-c6ccncc6)n5)CC4)cc3)nc3ncccn23)cc1` [Example 55, ′3-phenyl-2-(4-{[4-(5-pyridin-4-yl-1H-1,2,4-triazol-3-yl)piperidin-1-yl]methyl}phenyl)imidazo[1,2-a]pyrimidine], the IC50 is above 10 µM.

Source of the values: patent US9387204B2, “Fused bicyclic imidazoles” (BAYER INTELLECTUAL PROPERTY GmbH, priority 2007, dated 2016).
